Read-outs that look alike come from different tables or passages of the source. Positions of bridges follow the written chain, without caps; N, C: chain ends. Non-standard residues stand in square brackets, D forms with d. Residues, ends and D or L forms follow the SMILES beside them. ξ: configuration not given here. Trp(2-Ph) = N[C@@H](Cc1c(-c2ccccc2)[nH]c2ccccc12)C(=O)O; Phe(4-Cl) = N[C@@H](Cc1ccc(Cl)cc1)C(=O)O; Bta = N[C@@H](Cc1csc2ccccc12)C(=O)O; Hyp = O=C(O)[C@@H]1C[C@@H](O)CN1; NMeF = CN[C@@H](Cc1ccccc1)C(=O)O; Cha = N[C@@H](CC1CCCCC1)C(=O)O; NMeNle = CCCC[C@H](NC)C(=O)O; NMeM = CN[C@@H](CCSC)C(=O)O; NMeS = CN[C@@H](CO)C(=O)O; ξR = N=C(N)NCCCC(N)C(=O)O; NMeA = CN[C@@H](C)C(=O)O; dNMeA = CN[C@H](C)C(=O)O; Dab = NCC[C@H](N)C(=O)O; Dap = NC[C@H](N)C(=O)O; ξC = NC(CS)C(=O)O; Sar = CNCC(=O)O
Key:
Human PD-L1/PD-1 = target: T1, Human PD-L1/PD-1 (Homo sapiens, UniProt Q9NZQ7); assay: HTRF PD-1-Ig/PD-L1-His binding assay (human PD-L1); conditions: cluster symbol; read-out: HTRF IC50 cluster
T1 construct: made in house; host or cells: HEK293T
Procedure, shortened: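 HTRF read-out: Eu cryptate anti-Ig mAb 1 nM final, APC anti-His mAb 20 nM final, added over the binding reaction. Proteins were PD-1-Ig and PD-L1-His ectodomain fusions. Buffer was dPBS, 0.1% BSA, 0.05% Tween-20.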

[1] = target: T2, LK35.2-hPD-L1 cells / PE-labeled PD-1-Ig (Homo sapiens, UniProt Q9NZQ7); assay: LK35.2-hPD-L1 cell binding high-content screening assay; type: cell-based; conditions: cluster symbol, read-out: CBA IC50 cluster
T2 construct: expressed in transfected cells; host or cells: LK35.2 mouse B cell line
Procedure, shortened: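 Fluorescent PD-1-Ig binding to PD-L1-expressing LK35.2 cells, imaged after washing. Conditions: 1 nM PE-PD-1-Ig, 37 °C, 1 h, RPMI with 10% fetal calf serum.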

[2] = cell line of CBA not given (LK35.2-hPD-L1 or 293T-hPD-L1)
[3] = cell binding assay, cell line not given

T2 sequence (Q9NZQ7 19-290): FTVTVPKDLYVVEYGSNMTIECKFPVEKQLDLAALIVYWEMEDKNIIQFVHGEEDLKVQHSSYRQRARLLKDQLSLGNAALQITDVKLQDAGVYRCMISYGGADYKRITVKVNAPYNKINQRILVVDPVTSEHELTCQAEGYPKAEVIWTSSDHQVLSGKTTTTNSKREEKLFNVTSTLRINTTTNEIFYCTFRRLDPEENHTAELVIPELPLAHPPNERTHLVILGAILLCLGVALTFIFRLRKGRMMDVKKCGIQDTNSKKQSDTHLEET
T1 sequence (Q9NZQ7 with tags, fused parts or gaps): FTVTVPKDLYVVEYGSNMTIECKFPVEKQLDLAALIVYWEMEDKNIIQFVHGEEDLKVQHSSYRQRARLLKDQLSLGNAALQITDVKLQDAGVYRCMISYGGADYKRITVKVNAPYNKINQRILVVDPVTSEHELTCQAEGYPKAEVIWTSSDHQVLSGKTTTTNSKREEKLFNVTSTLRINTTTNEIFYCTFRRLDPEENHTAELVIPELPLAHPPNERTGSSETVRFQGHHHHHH

SMILES | IC50 (Human PD-L1/PD-1) [nM] | IC50 [1, 2] [nM] | IC50 [1, 3] [nM]
CCCC[C@H]1C(=O)N(C)[C@@H](CCCC)C(=O)N[C@@H](CN)C(=O)N[C@H](C(=O)NCC(N)=O)CSCC(=O)N[C@@H](Cc2ccc(O)cc2)C(=O)N(C)[C@@H](C)C(=O)N[C@@H](CC(N)=O)C(=O)N2CCC[C@H]2C(=O)N[C@@H](CN)C(=O)N[C@@H](CC(C)C)C(=O)N2C[C@H](O)C[C@H]2C(=O)N[C@@H](Cc2c[nH]c3ccccc23)C(=O)N[C@@H](CO)C(=O)N[C@@H](Cc2csc3ccccc23)C(=O)N1C [Example 1161] ({CH2CO}-Y[NMeA]NP[Dap]L[Hyp]WS[Bta][NMeNle][NMeNle][Dap]CG-NH2; thioether N-14) | 0.385 to 6.74 | 0.158 to 4.71 | 
CCCC[C@H]1C(=O)N(C)[C@@H](CCCC)C(=O)N[C@@H](CC(C)C)C(=O)N[C@H](C(=O)NCC(N)=O)CSCC(=O)N[C@@H](Cc2ccc(O)cc2)C(=O)N(C)[C@@H](C)C(=O)N[C@@H](CC(N)=O)C(=O)N2CCC[C@H]2C(=O)N[C@@H](CN)C(=O)N[C@@H](CC(C)C)C(=O)N2C[C@H](O)C[C@H]2C(=O)N[C@@H](Cc2c[nH]c3ccccc23)C(=O)N[C@@H](CO)C(=O)N[C@@H](Cc2c[nH]c3ccccc23)C(=O)N1C [Example 5070] ({CH2CO}-Y[NMeA]NP[Dap]L[Hyp]WSW[NMeNle][NMeNle]LCG-NH2; thioether N-14) | 0.385 to 6.74 |  | 0.158 to 4.71
CCCC[C@H]1C(=O)N(C)CC(=O)N[C@@H](CC(=O)O)C(=O)N[C@@H](C(C)C)C(=O)N(C)[C@@H](Cc2ccccc2)C(=O)N[C@@H](Cc2ccc(O)cc2)C(=O)N(C)[C@H](C)C(=O)N[C@@H](Cc2c[nH]c3ccccc23)C(=O)N[C@@H](Cc2ccc(O)cc2)C(=O)N[C@@H](CC(C)C)C(=O)N[C@H](C(=O)NCC(N)=O)CSCC(=O)N[C@@H](Cc2ccccc2)C(=O)N(C)[C@@H](Cc2ccccc2)C(=O)N1C [Example 3551] ({CH2CO}-F[NMeF][NMeNle][Sar]DV[NMeF]Y[dNMeA]WYLCG-NH2; thioether N-13) | 6.76 to 30.3 |  | 4.78 to 72.9
CCCC[C@H]1C(=O)N(C)[C@@H](CCCC)C(=O)N[C@@H](CCCNC(=N)N)C(=O)NC(C(=O)NCC(N)=O)CSCC(=O)N[C@@H](Cc2ccc(O)cc2)C(=O)N(C)[C@@H](C)C(=O)N[C@@H](CC(N)=O)C(=O)N2CCC[C@H]2C(=O)N[C@@H](CC(N)=O)C(=O)N[C@@H](CC(C)C)C(=O)N2CCC[C@H]2C(=O)N[C@@H](Cc2c[nH]c3ccccc23)C(=O)N[C@@H](CO)C(=O)N[C@@H](Cc2csc3ccccc23)C(=O)N1C (stereo partly shown) [Example 9060] ({CH2CO}-Y[NMeA]NPNLPWS[Bta][NMeNle][NMeNle]R[ξC]G-NH2; thioether N-14) | 0.385 to 6.74 |  | 0.158 to 4.71
CCCC[C@H]1C(=O)N(C)[C@@H](CCCC)C(=O)N[C@@H](CC2CCCCC2)C(=O)N[C@H](C(=O)NCC(N)=O)CSCC(=O)N[C@@H](Cc2ccc(O)cc2)C(=O)N(C)[C@@H](C)C(=O)N[C@@H](CC(N)=O)C(=O)N2CCC[C@H]2C(=O)N[C@@H](Cc2c[nH]cn2)C(=O)N[C@@H](CCC(N)=O)C(=O)N2C[C@H](O)C[C@H]2C(=O)N[C@@H](Cc2c[nH]c3ccccc23)C(=O)N[C@@H](CO)C(=O)N[C@@H](Cc2c[nH]c3ccccc23)C(=O)N1C [Example 5077] ({CH2CO}-Y[NMeA]NPHQ[Hyp]WSW[NMeNle][NMeNle][Cha]CG-NH2; thioether N-14) | 6.76 to 30.3 |  | 0.158 to 4.71
CCCC[C@H]1C(=O)N(C)CC(=O)N[C@@H](CC(=O)O)C(=O)N[C@@H](C(C)C)C(=O)N(C)[C@@H](Cc2ccccc2)C(=O)N[C@@H](Cc2ccc(O)cc2)C(=O)N(C)CC(=O)N[C@@H](Cc2c[nH]c3ccccc23)C(=O)N[C@@H](Cc2ccc(O)cc2)C(=O)N[C@@H](CC(C)C)C(=O)N[C@H](C(=O)NCC(N)=O)CSCC(=O)N[C@@H](Cc2ccc(Cl)cc2)C(=O)N(C)[C@@H](Cc2ccccc2)C(=O)N1C [Example 3067] ({CH2CO}-[Phe(4-Cl)][NMeF][NMeNle][Sar]DV[NMeF]Y[Sar]WYLCG-NH2; thioether N-13) | 0.385 to 6.74 | 0.158 to 4.71 | 
CCCC[C@H]1C(=O)N(C)[C@@H](CO)C(=O)N[C@@H](CCCNC(=N)N)C(=O)NC(C(=O)NCC(N)=O)CSCC(=O)N[C@@H](Cc2ccc(O)cc2)C(=O)N(C)[C@@H](C)C(=O)N[C@@H](CC(N)=O)C(=O)N2CCC[C@H]2C(=O)N[C@@H](Cc2cnc[nH]2)C(=O)N[C@@H](CC(C)C)C(=O)N2CCC[C@H]2C(=O)N[C@@H](Cc2c[nH]c3ccccc23)C(=O)N[C@@H](CO)C(=O)N[C@@H](Cc2c[nH]c3ccccc23)C(=O)N1C (stereo partly shown) [Example 9032] ({CH2CO}-Y[NMeA]NPHLPWSW[NMeNle][NMeS]R[ξC]G-NH2; thioether N-14) | 6.76 to 30.3 |  | 4.78 to 72.9
CCCC[C@H]1C(=O)N(C)[C@@H](CCCC)C(=O)N[C@@H](CCC(=O)O)C(=O)N[C@H](C(=O)NCC(N)=O)CSCC(=O)N[C@@H](Cc2ccc(O)cc2)C(=O)N(C)[C@@H](C)C(=O)N[C@@H](CC(=O)O)C(=O)N2CCC[C@H]2C(=O)N[C@@H](Cc2c[nH]cn2)C(=O)N[C@@H](CCC(N)=O)C(=O)N2C[C@H](O)C[C@H]2C(=O)N[C@@H](Cc2c[nH]c3ccccc23)C(=O)N[C@@H](CO)C(=O)N[C@@H](Cc2c[nH]c3ccccc23)C(=O)N1C [Example 5088] ({CH2CO}-Y[NMeA]DPHQ[Hyp]WSW[NMeNle][NMeNle]ECG-NH2; thioether N-14) | 0.385 to 6.74 |  | 4.78 to 72.9
CCCC[C@H]1C(=O)N(C)[C@@H](CCCC)C(=O)NC(CCCNC(=N)N)C(=O)N[C@H](C(=O)NCC(N)=O)CSCC(=O)N[C@@H](Cc2ccc(O)cc2)C(=O)N(C)[C@@H](C)C(=O)N[C@@H](CC(N)=O)C(=O)N2CCC[C@H]2C(=O)N[C@@H](Cc2cnc[nH]2)C(=O)N[C@@H](CC(C)C)C(=O)N2CCC[C@H]2C(=O)N[C@@H](Cc2c[nH]c3ccccc23)C(=O)N[C@@H](CO)C(=O)N[C@@H](Cc2c(-c3ccccc3)[nH]c3ccccc23)C(=O)N1C (stereo partly shown) [Example 7001] ({CH2CO}-Y[NMeA]NPHLPWS[Trp(2-Ph)][NMeNle][NMeNle][ξR]CG-NH2; thioether N-14) | 0.385 to 6.74 |  | 0.158 to 4.71
CCCC[C@H]1C(=O)N(C)[C@@H](CCCC)C(=O)N[C@@H](CCCNC(=N)N)C(=O)N[C@H](C(=O)NCC(N)=O)C/C=C/C(=O)N[C@@H](Cc2ccc(O)cc2)C(=O)N(C)[C@@H](C)C(=O)N[C@@H](CC(N)=O)C(=O)N2CCCC2C(=O)N[C@@H](CN)C(=O)N[C@@H](CC(C)C)C(=O)N2C[C@H](O)C[C@H]2C(=O)N[C@@H](Cc2c[nH]c3ccccc23)C(=O)N[C@@H](CO)C(=O)N[C@@H](Cc2c[nH]c3ccccc23)C(=O)N1C (stereo partly shown) [Example 7013] | 6.76 to 30.3 |  | 4.78 to 72.9
CCCC[C@H]1C(=O)N(C)[C@@H](Cc2ccccc2)C(=O)N[C@@H](CN)C(=O)N[C@H](C(=O)NCC(N)=O)CSCC(=O)N[C@@H](Cc2ccc(O)cc2)C(=O)N(C)[C@@H](C)C(=O)N[C@@H](CC(N)=O)C(=O)N2CCC[C@H]2C(=O)N[C@@H](Cc2c[nH]cn2)C(=O)N[C@@H](CCC(=O)O)C(=O)N2C[C@H](O)C[C@H]2C(=O)N[C@@H](Cc2c[nH]c3ccccc23)C(=O)N[C@@H](CCN)C(=O)N[C@@H](Cc2c[nH]c3ccccc23)C(=O)N1C [Example 5147] ({CH2CO}-Y[NMeA]NPHE[Hyp]W[Dab]W[NMeNle][NMeF][Dap]CG-NH2; thioether N-14) | 0.385 to 6.74 |  | 4.78 to 72.9
CCCC[C@H]1C(=O)N[C@H](CC(=O)O)C(=O)N[C@@H](CC(=O)O)C(=O)N[C@@H](C(C)C)C(=O)N(C)[C@@H](Cc2ccccc2)C(=O)N[C@@H](Cc2ccc(O)cc2)C(=O)N(C)CC(=O)N[C@@H](Cc2c[nH]c3ccccc23)C(=O)N[C@@H](Cc2ccc(O)cc2)C(=O)N[C@@H](CC(C)C)C(=O)N[C@H](C(=O)NCC(N)=O)CSCC(=O)N[C@@H](Cc2ccccc2)C(=O)N(C)[C@@H](Cc2ccccc2)C(=O)N1C [Example 3552] (HELM PEPTIDE1{[O=C(C[*:3])[*:2]].F.[meF].[CCCC[C@@H](C(=O)[*:2])N(C)[*:1]].[dD].D.V.[meF].Y.[Sar].W.Y.L.C.G.[am]}$PEPTIDE1,PEPTIDE1,1:R3-14:R3$$$V2.0) | 0.385 to 6.74 |  | 4.78 to 72.9
CCCC[C@H]1C(=O)N[C@@H](CCCNC(=N)N)C(=O)NC(C(=O)NCC(N)=O)CSCC(=O)N[C@@H](Cc2ccc(O)cc2)C(=O)N(C)[C@@H](C)C(=O)N[C@@H](CC(N)=O)C(=O)N2CCC[C@H]2C(=O)N[C@@H](CN)C(=O)N[C@@H](CC(C)C)C(=O)N2C[C@H](O)C[C@H]2C(=O)N[C@@H](Cc2c[nH]c3ccccc23)C(=O)N[C@@H](CO)C(=O)N[C@@H](Cc2csc3ccccc23)C(=O)N(C)[C@@H](CCSC)C(=O)N1C (stereo partly shown) [Example 9092] ({CH2CO}-Y[NMeA]NP[Dap]L[Hyp]WS[Bta][NMeM][NMeNle]R[ξC]G-NH2; thioether N-14) | 6.76 to 30.3 |  | 0.158 to 4.71
CCCC[C@H]1C(=O)N(C)[C@@H](CCCC)C(=O)N[C@@H](CCCNC(=N)N)C(=O)NC(C(=O)NCC(N)=O)CSCC(=O)N[C@@H](Cc2ccc(O)cc2)C(=O)N(C)[C@@H](C)C(=O)N[C@@H](CC(N)=O)C(=O)N2CCC[C@H]2C(=O)N[C@@H](CO)C(=O)N[C@@H](CC(C)C)C(=O)N2C[C@H](O)C[C@H]2C(=O)N[C@@H](Cc2c[nH]c3ccccc23)C(=O)N[C@@H](CO)C(=O)N[C@@H](Cc2c[nH]c3ccccc23)C(=O)N1C (stereo partly shown) [Example 9074] ({CH2CO}-Y[NMeA]NPSL[Hyp]WSW[NMeNle][NMeNle]R[ξC]G-NH2; thioether N-14) | 0.385 to 6.74 |  | 0.158 to 4.71

From patent publication US9850283B2, “Macrocyclic inhibitors of the PD-1/PD-L1 and CD80(B7-1)/PD-L1 protein/protein interactions” (BRISTOL-MYERS SQUIBB COMPANY, priority 2013, dated 2017)
